Values quoted from earlier work, collected in US20060078615A1, “Bilayer tablet of telmisartan and simvastatin” (Boehringer Ingelheim International GmbH, priority 2004, published 2006).

Settings: physiological pH range of the gastrointestinal tract, pH 1 to 7; free acid form

SMILES: CCCc1nc2c(C)cc(-c3nc4ccccc4n3C)cc2n1Cc1ccc(-c2ccccc2C(=O)O)cc1 [Telmisartan, 4′-[2-n-propyl-4-methyl-6-(1-methylbenzimidazol-2-yl)benzimidazol-1-ylmethyl]biphenyl-2-carboxylic acid]
- solubility in aqueous systems: very poor solubility
